Read-outs that look alike come from different tables or passages of the source. Positions of bridges follow the written chain, without caps; N, C: chain ends. Residues, ends and D or L forms follow the SMILES beside them. *: point of attachment. For = O=C*
Key:
[1] = system: Madin Darby canine kidney (MDCK) cells; type: cell-based; conditions: for EC50, decrease of electrical resistance across MDCK cell monolayer: 18 hours
Protocol: Yet another assay evaluates the effect of a modulating agent on the electrical resistance across a monolayer of cells. For example, Madin Darby canine kidney (MDCK) cells can be exposed to the modulating agent dissolved in medium (e.g., at a final concentration of 0.5 mg/ml for a period of 24 hours). The effect on electrical resistance can be measured using standard techniques. This assay evaluates the effect of a modulating agent on tight junction formation in epithelial cells. In general, the presence of 500 μg/mL modulating agent should result in a statistically significant decrease in electrical resistance after 24 hours.
Madin Darby canine kidney (MDCK) cells were plated in Millicells (Millipore, Bedford, Mass.), at a density of 300,000 cells per Millicell, and cultured in Dulbecco's Modified Eagle Medium (DMEM; Sigma, St. Louis, Mo.) containing 5% fetal calf serum (Sigma, St. Louis, Mo.) until monolayers formed. Monolayers were exposed to the modulating agent dissolved in medium. The electrical resistance was measured using the EVOM device (World Precision Instruments, Sarasota, Fla.). At the time of measurement, fresh medium, with or without the modulating agent, may be added to the Millicells.

[2] = biological target: T1, chick N-cadherin (Gallus gallus, UniProt P10288); experiment: Neurite outgrowth of rat cerebellar neurons on N-cadherin expressing 3T3 monolayers (Example 15); type: cell-based; conditions: for inhibition at 250 µg/mL / inhibition of N-cadherin dependent neurite outgrowth (in words): 250 μg/mL; for inhibition at 250 µg/mL / inhibition at 125 µg/mL: 16-18 hours, read-out: % Inhibition of N-Cadherin Dependent Neurite Outgrowth; for inhibition at 125 µg/mL: 125 μg/mL; for inhibitory activity on N-cadherin dependent neurite outgrowth, structure/activity statements: Tables 8 and 9; for activity on N-cadherin dependent neurite outgrowth (in words): 125 micrograms/mL or below; for reduction in inhibitory activity on flanking HAV with E-cadherin amino acids: 250 μg/mL (Table 8)
T1 construct: expressed in transfected cells; host or cells: 3T3 fibroblasts (monolayer); rat post-natal day 2-3 cerebellar neurons plated on top
T1 sequence (P10288 165-912): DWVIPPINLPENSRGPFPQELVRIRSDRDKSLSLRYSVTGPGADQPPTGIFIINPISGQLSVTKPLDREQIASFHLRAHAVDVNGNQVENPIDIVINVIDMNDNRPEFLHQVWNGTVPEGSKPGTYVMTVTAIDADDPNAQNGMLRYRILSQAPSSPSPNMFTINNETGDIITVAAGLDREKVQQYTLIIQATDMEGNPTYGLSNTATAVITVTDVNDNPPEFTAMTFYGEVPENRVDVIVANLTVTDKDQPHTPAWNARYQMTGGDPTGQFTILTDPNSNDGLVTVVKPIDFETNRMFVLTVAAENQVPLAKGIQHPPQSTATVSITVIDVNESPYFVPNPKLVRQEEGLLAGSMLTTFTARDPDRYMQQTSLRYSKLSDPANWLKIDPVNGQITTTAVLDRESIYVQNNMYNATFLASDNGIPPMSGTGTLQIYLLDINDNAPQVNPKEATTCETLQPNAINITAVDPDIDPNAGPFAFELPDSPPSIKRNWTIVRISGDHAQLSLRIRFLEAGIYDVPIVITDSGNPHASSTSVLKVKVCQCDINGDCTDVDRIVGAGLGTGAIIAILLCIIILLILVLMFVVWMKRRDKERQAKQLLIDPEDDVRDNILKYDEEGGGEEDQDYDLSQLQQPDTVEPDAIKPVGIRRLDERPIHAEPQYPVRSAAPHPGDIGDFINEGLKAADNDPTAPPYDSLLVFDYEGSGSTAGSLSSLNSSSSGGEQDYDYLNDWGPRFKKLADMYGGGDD
Protocol: Cell culture and neurite outgrowth assays. Co-cultures of cerebellar neurons on monolayers of control 3T3 cells and monolayers of transfected 3T3 cells that express physiological levels of chick N-cadherin or human L1 were established as previously described (Williams et al., Neuron 13:583-594, 1994). In brief, 80,000 3T3 cells (control and transfected) were plated into individual chambers of an eight-chamber tissue culture slide coated with polylysine and fibronectin and cultured in DMEM/10% FCS. After 24 hours, when confluent monolayers had formed, the medium was removed and 3000 cerebellar neurons isolated from post-natal day 2-3 rats were plated into each well in SATO media (Doherty et al., Nature 343:464-466, 1990) supplemented with 2% FCS. All of the test peptides were added immediately before the neurons as a 2× stock prepared in SATO/2% FCS. The co-cultures were maintained for 16-18 hours, at which time they were fixed and immunostained for GAP-43 which is present only in the neurons and delineates the neuritic processes. The mean length of the longest neurite per cell was measured for 150-200 neurons sampled in replicate cultures as previously described (Williams et al., Neuron 13:583-594, 1994). […] Dose-response curves were evaluated and the EC50 values determined.

[3] = system: HMVEC; type: cell-based, human; conditions: 3 h
Protocol: (§1) N—Ac-CHAVC-NH2 (SEQ ID NO:10) and the control peptide N—Ac-CHGVC-NH2 (SEQ ID NO:11) were evaluated for possible cytotoxic effects on human microvascular endothelial (HMVEC; Clonetics), human umbilical vein endothelial (HUVEC; ATCC #CRL-1730), IAFp2 (human fibroblast cell line; Institute Armand-Frapier, Montreal, Quebec), WI-38 (human fibroblast cell line; ATCC #CCL-75), MDA-MB231 (human breast cancer cell line; ATCC #HTB-26), and PC-3 (human prostate cancer cell line; ATCC #CRL-1435) cells utilizing the MTT assay (Plumb et al., Cancer Res. 49:4435-4440, 1989). Neither of the peptides was cytotoxic at concentrations up to and including 100 μM. Similarly, neither of the peptides was capable of inhibiting the proliferation of the above cell lines at concentrations up to 100 μM, as judged by ^3H-thymidine incorporation assays.

[4] = system: IAFp2; type: cell-based, human; conditions: 3 h
Protocol: as §1

[5] = system: MDA-MB231; type: cell-based, human; conditions: 3 h
Protocol: as §1

[6] = system: WI-38; type: cell-based, human; conditions: 3 h
Protocol: as §1

[7] = system: PC-3; type: cell-based, human; conditions: 3 h
Protocol: as §1

[8] = system: HUVEC; type: cell-based, human; conditions: 3 h
Protocol: as §1

[9] = system: MDA-MB231; experiment: Cytotoxicity, MTT assay, MDA-MB231; type: cell-based, human
Protocol: as §1

[10] = system: PC-3; experiment: Cytotoxicity, MTT assay, PC-3; type: cell-based, human
Protocol: as §1

[11] = biological target: T2, N-cadherin (Gallus gallus, UniProt P10288); experiment: Neurite outgrowth inhibition, rat neurons (Example 21); type: cell-based; conditions: 500 μg/mL
T2 construct: expressed in transfected cells; host or cells: 3T3 fibroblasts (monolayer)
T2 sequence (P10288 165-912): T1 sequence (P10288 165-912)

CC(C)[C@@H]1NC(=O)[C@H](C)NC(=O)[C@H](Cc2c[nH]cn2)NC(=O)[C@@H](NS(C)(=O)=O)CSSC[C@@H](C(N)=O)NC1=O [CH3—SO2—NH—CHAVC—NH2]
effect on electrical resistance across MDCK cells (in words) [1]: complete loss of activity
EC50, decrease of electrical resistance across MDCK cell monolayer [1]: INACTIVE
inhibition at 250 µg/mL [2]: 74.7 ± 10.5%

CC(C)[C@@H]1NC(=O)[C@H](C)NC(=O)[C@H](Cc2c[nH]cn2)NC(=O)[C@@H](NC=O)CSSC[C@@H](C(=O)N[C@@H](CO)C(N)=O)NC1=O [H—C(O)—NH—CHAVCS—NH2] (For-CHAVCS-NH2; disulfide 1-5 (inferred))
inhibition at 250 µg/mL [2]: 75.8 ± 5.6%

CC(=O)N[C@H]1CSSC[C@@H](C(N)=O)NC(=O)[C@H](CC(=O)O)NC(=O)[C@H](C(C)C)NC(=O)CNC(=O)[C@H](Cc2c[nH]cn2)NC(=O)[C@H](C)NC1=O [N—Ac—CAHGVDC—NH2] (Ac-CAHGVDC-NH2; disulfide 1-7)
IC50 [3]: > 100 µM
IC50 [4]: > 100 µM
IC50 [5]: > 100 µM
IC50 [6]: > 100 µM
IC50 [7]: > 100 µM
IC50 [8]: > 100 µM
IC50 [9]: > 100 µM
IC50 [10]: > 100 µM

CC(=O)N[C@H]1CSSC[C@@H](C(N)=O)NC(=O)[C@@H]2CCCN2C(=O)[C@H](C(C)C)NC(=O)[C@H](C)NC(=O)[C@H](Cc2c[nH]cn2)NC1=O [N—Ac—CHAVPC—NH2] (Ac-CHAVPC-NH2; disulfide 1-6)
inhibition at 125 µg/mL [2]: 58 ± 4.3%
inhibitory activity on N-cadherin dependent neurite outgrowth, structure/activity statements [2]: potent inhibitors

CC(=O)N[C@H]1CSSC[C@@H](C(N)=O)NC(=O)[C@H](Cc2ccc(O)cc2)NC(=O)[C@H](C(C)C)NC(=O)[C@H](C)NC(=O)[C@H](Cc2c[nH]cn2)NC1=O [N—Ac—CHAVYC—NH2] (Ac-CHAVYC-NH2; disulfide 1-6)
inhibition at 125 µg/mL [2]: 64.9 ± 1.9%
inhibition at 250 µg/mL [2]: 64.9%
inhibitory activity on N-cadherin dependent neurite outgrowth, structure/activity statements [2]: potent inhibitors

CC(=O)N[C@H]1CSSC[C@@H](C(N)=O)NC(=O)[C@H](Cc2c[nH]cn2)NC(=O)CNC(=O)[C@H](C(C)C)NC1=O [N—Ac—CVGHC—NH2] (Ac-CVGHC-NH2; disulfide 1-5)
IC50 [3]: > 100 µM
IC50 [4]: > 100 µM
IC50 [5]: > 100 µM
IC50 [6]: > 100 µM
IC50 [7]: > 100 µM
IC50 [8]: 30 µM
IC50 [9]: > 100 µM
IC50 [10]: > 100 µM

N—Ac-LRAHAVDING-NH2: linear 10-mer, SEQ ID NO:79 [reference compound]
% inhibition of N-cadherin dependent neurite outgrowth [2]: 68.8+/−4.1%

N—Ac—CAHAVC—NH2: cyclic peptide, SEQ ID NO:22 (Ac-CAHAVC-NH2; disulfide 1-6 (inferred))
inhibition of N-cadherin dependent neurite outgrowth (in words) [2]: potent inhibitors of neurite outgrowth
activity on N-cadherin dependent neurite outgrowth (in words) [2]: lost activity
inhibitory activity on N-cadherin dependent neurite outgrowth, structure/activity statements [2]: little affect

N—Ac—CHAVCE—NH2: cyclic peptide, SEQ ID NO:92 (Ac-CHAVCE-NH2; disulfide 1-5 (inferred))
EC50, decrease of electrical resistance across MDCK cell monolayer [1]: INACTIVE

N—Ac—CHAVDINGC—NH2: cyclic peptide, SEQ ID NO:76 (Ac-CHAVDINGC-NH2; disulfide 1-9 (inferred))
inhibitory activity on N-cadherin dependent neurite outgrowth, structure/activity statements [2]: completely abrogates activity

N—Ac—CHAVSSC—NH2: cyclic peptide, SEQ ID NO:44 (Ac-CHAVSSC-NH2; disulfide 1-7 (inferred))
EC50, decrease of electrical resistance across MDCK cell monolayer [1]: INACTIVE
reduction in inhibitory activity on flanking HAV with E-cadherin amino acids [2]: substantial

N—Ac—CLFSHAVC—NH2 (Ac-CLFSHAVC-NH2; disulfide 1-8 (inferred))
effect on electrical resistance across MDCK cells (in words) [1]: loss of activity in this assay
EC50, decrease of electrical resistance across MDCK cell monolayer [1]: INACTIVE

N—Ac—CLRAHAVC—NH2: cyclic peptide, SEQ ID NO:30 (Ac-CLRAHAVC-NH2; disulfide 1-8 (inferred))
inhibitory activity on N-cadherin dependent neurite outgrowth, structure/activity statements [2]: detrimental affect

N—Ac—CLRAHAVDC—NH2: cyclic peptide, SEQ ID NO:32 (Ac-CLRAHAVDC-NH2; disulfide 1-9 (inferred))
inhibition of N-cadherin dependent neurite outgrowth (in words) [2]: potent inhibitors of neurite outgrowth
activity on N-cadherin dependent neurite outgrowth (in words) [2]: lost activity
inhibitory activity on N-cadherin dependent neurite outgrowth, structure/activity statements [2]: partial recovery of activity

N—Ac—CRAHAVDC—NH2: cyclic peptide, SEQ ID NO:28 (Ac-CRAHAVDC-NH2; disulfide 1-8 (inferred))
inhibition of neurite outgrowth [11]: (inhibition observed
inhibitory activity on N-cadherin dependent neurite outgrowth, structure/activity statements [2]: completely eliminated inhibitory activity

N—Ac—CSHAVSC—NH2: cyclic peptide, SEQ ID NO:40 (Ac-CSHAVSC-NH2; disulfide 1-7 (inferred))
EC50, decrease of electrical resistance across MDCK cell monolayer [1]: INACTIVE
reduction in inhibitory activity on flanking HAV with E-cadherin amino acids [2]: complete

Source: US20040106545A1, “Compounds and methods for modulating cell adhesion” (priority 1996, published 2004)
